Patent US4721707A, “Complex salt” (priority 1982, dated 1988)
Entries after “also recorded” stand apart in the source; their conditions may differ.

Assays:
[1] = system: patients; details: infusion in patients; listed as TMC; cited from earlier work
[2] = Solubility of SNP, TMC, TNP and mixtures (Example 10); type: physicochemical; details: for amount of solvent giving clear solution: 22° C., SNP 50 mg, TMC 250 mg; for solubility of mixtures / TNP: borderline amount of solvent: 50 + 500 mg (1 + 10)
Protocol: At room temperature (22° C.) clear solutions were obtained in the following solvents from the following compounds: […]

[3] = system: blood pressure; test: Infusion dosage required to achieve a given lowering of the blood pressure in a cat under Nembutal narcosis (Table I, FIG. 4); type: in vivo; set-up: key to Infusion dosage required for lowering of blood pressure (symbol): *: Limit of activity and/or predominance of toxic side effects; details: for Infusion dosage required for lowering of blood pressure / Infusion dosage required for lowering of blood pressure (symbol): i.v. infusion
Protocol: This is evident, for example, from the following experiment:
The various infusion solutions listed below were infused i.v. in succession, with appropriate recovery intervals, into a male, spontaneously respiring cat weighing 3.7 kg under Nembutal narcosis, and the dosages required to achieve a given lowering of the blood pressure were determined.
For the preparation of the infusion solutions, the substances or their concentrated stock solutions were diluted with 0.9% sodium chloride solution to a uniform infusion strength of 9 mg/100 ml (90 ug/ml). All solutions were freshly prepared and infused with the exclusion of light (aluminium foil) corresponding to the dosages given below.
The values given in Table I hereinafter were determined graphically.
FIG. 4, a comparison of equieffective doses of A, B, C, D and E, is derived from the figures in Table I, and further indicates the unobvious superiority of infusion solutions having a weight ration of less than 1:10 of the salts.
On the Y-axis, the weight percent of the trimethaphan ion in trimethaphan camsylate needed to achieve the indicated level of hypotension reduction is always set at 100% for each level, indicating the infusion solution of C. The X-axis measures the weight of nitroprusside ion expressed as a weight percent of the trimethaphan ion needed; B, having no trimethaphan, is set at 0 weight percent. The percents for A, D, and E are as indicated.
The hypotenuse of the triangle indicates the hypotensive effect expected to result from using mixtures of nitroprusside and trimethaphan ions. […] The lower and more to the left the values are, the higher the degree of synergism.

[4] = system: blood pressure; details: TMC; cited from earlier work
[5] = system: rats; details: i.v.; cited from earlier work
[6] = Solubility / dissolution of I and of mixtures of I and sodium thiosulphate pentahydrate; type: physicochemical; details: for solubility in weaker ethanol: weaker than 50% ethanol
Protocol: Mixtures of I and thiosulphate must not however, be heated in solution above 50° C., since otherwise the trimethaphan cation can decompose.
Therefore, the problem arose to find a physiologically acceptable solvent in which a mixture of I and thiosulphate in the weight ratio of about 1:1 to about 1:40 can dissolve to at least 5-10%, in a temperature range which for practical reasons should embrace temperatures between about 15° C. and about 35° C. Moreover, the concentrated solution should be able to dissolve without problem in the amount (250-1000 ml) of physiological sodium chloride solution or isotonic (5%) glucose solution required for final dilution.
For example, the mixture of 50 mg of I and 1000 mg of sodium thiosulphate pentahydrate dissolved

[7] = type: physicochemical; details: room temperature; for storability: light excluded
Protocol: (§1) The semihydrate forms compact needles from water (1/2H2 O calculated 0.94%, found 1.00%). […] Its solubility in water is 0.2% at room temperature. Its solubility in 60% ethanol is much better, and is about 3% at room temperature.
For the preparation of an infusion solution, the ampoule contents are dissolved in at least 220, at most 900 ml of sterile 0.9% sodium chloride solution or 5% glucose solution by vigorous shaking for a short time, whereafter the volume is brought to 250, 500 or 1000 ml. The infusion vessels and tubes are either to be covered with aluminum foil or must consist of material which is opaque to light.
50 mg of finely pulverized (+)-bis-(trimethaphan)-nitroprusside are filled into a sterilized, brown 5 ml flask closable with a synthetic stopper. 3 ml of 60% ethanol are sealed in a solvent ampoule and sterilized. […] Immediately before use the solid substance is dissolved in the solvent and the thus-obtained stock solution is used for the preparation of the infusion solution.

[8] = Solubility of (+)-bis-(trimethaphan)-nitroprusside and its semihydrate (Example 1); type: physicochemical
Source text: as §1

For `O=C1N(Cc2ccccc2)C2C[S+]3CCCC3C2N1Cc1ccccc1` (stereo not shown) [C, trimethaphan camsylate, reference compound], the side effects [1] is listed as “tachycardia, mydriasis, cycloplegia, urine retention, xerostomia and constipation; also recorded: nausea or vomiting; also recorded: allergies”, the “amount of solvent giving clear solution” value ([2]; 5% dextrose) is listed as 10 mL and the “amount of solvent giving clear solution” value ([2]; 40% ethanol) is listed as 10 mL. The “amount of solvent giving clear solution” value ([2]; 60% ethanol) was 2 mL, the “amount of solvent giving clear solution” value ([2]; water) was 10 mL and the “Infusion dosage required for lowering of blood pressure” value ([3]; -20 mm Hg, cat) was 6.0 ug/kg · min. For the same compound, the “Infusion dosage required for lowering of blood pressure” value ([3]; -30 mm Hg, cat) was 18 ug/kg · min, the “Infusion dosage required for lowering of blood pressure” value ([3]; -40 mm Hg, cat) was 55 ug/kg · min and the “Infusion dosage required for lowering of blood pressure (symbol)” value ([3]; -50 mm Hg, cat) was “*”. For the same compound, the “Infusion dosage required for lowering of blood pressure (symbol)” value ([3]; -55 mm Hg, cat) was “*”, the “Infusion dosage required for lowering of blood pressure (symbol)” value ([3]; -75 mm Hg, cat) was “*” and the “activity compared with other test substances (in words)” value ([3]; cat, comparison among A to E) was “significantly less active”. The limit of activity ([3]; lowering of blood pressure, cat) was -40 mm Hg and the “dosage required for the controlled lowering of blood pressure” value [4] was “about 30 ug/kg or more per minute”.
For `O=S([O-])([O-])=S.[Na+].[Na+]` [sodium thiosulphate, reference compound], the LD50 [5] is listed as 2500 mg/kg, the “solubility in over 40% ethanol” value ([6]; especially at temperatures <50° C.) is listed as “only very limited solubility” and the “solubility in weaker ethanol” value [6] is listed as “better solubility”.
In the case of “(+)-bis-/(3aS,8aR,8bR)-1,3-dibenzyldecahydro-2-oxoimidazo[4,5-c]thieno[1,2-a]thiolium/nitrosylpentacyano-ferrate”, the storability [7] is reported as “can be stored for a very long time”, the “solubility in aqueous ethanol” value ([8]; aqueous ethanol) is reported as “dissolves readily” and the “solubility in water, absolute ethanol and cyclohexane” value ([8]; water, absolute ethanol and cyclohexane) is reported as “only very slightly soluble”. For the same compound, the “Infusion dosage required for lowering of blood pressure” value ([3]; -20 mm Hg, cat) was 1.5 ug/kg · min, the “Infusion dosage required for lowering of blood pressure” value ([3]; -30 mm Hg, cat) was 2.3 ug/kg · min and the “Infusion dosage required for lowering of blood pressure” value ([3]; -40 mm Hg, cat) was 3.5 ug/kg · min. The “Infusion dosage required for lowering of blood pressure” value ([3]; -50 mm Hg, cat) was 5.8 ug/kg · min, the “Infusion dosage required for lowering of blood pressure” value ([3]; -55 mm Hg, cat) was 7.8 ug/kg · min and the “Infusion dosage required for lowering of blood pressure” value ([3]; -75 mm Hg, cat) was 40 ug/kg · min. The “limit of activity (in words)” value ([3]; compared with all the other substances or mixtures) was “significantly higher limit of activity than all the other substances or mixtures” and the “strength of activity (in words)” value ([3]; slight lowering of the blood pressure (to -30 mm Hg)) was “approximately comparable strengths of activity; also recorded: shows up best”.
For bis-(trimethaphan)-nitroprusside, the storability [7] was “can be stored without further additives”, the “solubility of mixtures / TNP: borderline amount of solvent” value (from here on “solubility of mixtures / TNP”) ([2]; 5% dextrose, 125 + 500 mg (1 + 4), TNP 40 mg (highly purified product)) was 100 mL and the “solubility of mixtures / TNP” value ([2]; 40% ethanol, TNP 40 mg) was 25 mL. The “solubility of mixtures / TNP” value ([2]; 60% ethanol, 125 + 500 mg (1 + 4), TNP 40 mg) was 2 mL, the synergistic activity ([3]; nitroprusside and trimethaphan ions in molar ratio 1:2, FIG. 4 / Table I) was “maximum synergistic activity” and the “ethanol concentration required for concentrated stock solution” value ([6]; ethanol-water, room temperature (22° C.), FIG. 1) was “at least 40%”. For the same compound, the “solubility in water (in words)” value ([6]; water) was “poorly soluble in water” and the “solubility in weaker ethanol” value [6] was “no longer completely soluble”.
In the case of “bis-(trimethaphan)-nitroprusside semihydrate”, the stability at storage [7] is reported as “stable”, the “water loss at storage” value [7] is reported as “does not lose water” and the “solubility in 60% ethanol” value ([8]; room temperature) is reported as “about 3%”. For the same compound, the solubility in water ([8]; room temperature) was 0.2%.
